Laboratory results as given in PMC6164072, “Lysoquinone-TH1, a New Polyphenolic Tridecaketide Produced by Expressing the Lysolipin Minimal PKS II in Streptomyces albus” (Antibiotics, 2018).

Molecular target: T1, PDE-4B2 (Homo sapiens, UniProt Q07343)
T1 construct: gene PDE4B; human recombinant PDE-4B2 (BPS Bioscience no. 60042)
Assay: PDELight HTS cAMP phosphodiesterase luminescence assay
Assay type: biochemical

T1 sequence (Q07343 1-564 isoform Q07343-2): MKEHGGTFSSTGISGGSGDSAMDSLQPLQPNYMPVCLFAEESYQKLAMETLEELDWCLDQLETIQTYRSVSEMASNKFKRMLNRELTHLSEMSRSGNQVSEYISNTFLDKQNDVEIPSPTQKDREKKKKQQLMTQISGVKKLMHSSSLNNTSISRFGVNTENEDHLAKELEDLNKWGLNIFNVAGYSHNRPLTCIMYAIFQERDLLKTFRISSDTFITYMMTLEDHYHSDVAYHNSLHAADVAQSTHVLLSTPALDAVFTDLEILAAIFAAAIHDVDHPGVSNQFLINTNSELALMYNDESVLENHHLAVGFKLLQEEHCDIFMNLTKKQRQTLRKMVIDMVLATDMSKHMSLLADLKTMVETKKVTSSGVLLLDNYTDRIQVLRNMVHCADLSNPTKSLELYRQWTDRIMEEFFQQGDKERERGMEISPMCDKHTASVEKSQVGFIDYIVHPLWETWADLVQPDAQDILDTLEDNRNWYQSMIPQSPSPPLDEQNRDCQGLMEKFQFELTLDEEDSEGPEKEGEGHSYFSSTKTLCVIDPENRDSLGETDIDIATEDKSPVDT

## lysoquinone-TH1 [compound 7]
  IC50: 10 to 20 µM
